Source: ChEMBL document CHEMBL6109155, “Discovery of Phenylacylpiperidine as Novel sEH Inhibitors through Scaffold Hopping of Natural Stilbene” (J Med Chem, 2025)
The source made the active and inactive calls. The calls are words filed in the database; no cut-off is given here.

Experiments:
[1] = Ratio of Cmax in liver to plasma in C57BL/6J mouse at 20 mg/kg, po measured for 24 hrs; format: ADME, organism-based; details: liver and plasma
Mus musculus [2] = experiment: (§1) Anti-inflammatory activity in CD-1 mouse model of cerulein-induced acute pancreatitis assessed as increase in ratio of pancreatic EET/DHET level at 10 mg/kg, ip drug administered at 30 mins and 2.5 hrs post-first cerulein injection and measured after 6 hrs post-first cerulein injection (reference value: 23.5 to 41.7 %); format: functional; details: time 3.5-5.5 hrs
Rattus norvegicus [3] = experiment: Anti-inflammatory activity in Sprague-Dawley rat model of CFA-induced rheumatoid arthritis assessed as decrease in paw swelling at 10 mg/kg, po administered daily measured after 7 days; format: functional, organism-based; details: time 7.0 day
Mus musculus [4] = experiment: Anti-inflammatory activity in BALB/c mouse model of carrageenan-induced paw edema assessed as inhibition of paw swelling at 20 mg/kg, po measured for 2 hrs relative to control; format: functional
Rattus norvegicus [5] = experiment: Anti-inflammatory activity in Sprague-Dawley rat model of CFA-induced rheumatoid arthritis assessed as increase in ratio of plasma 14,15-EET to DHET levels at 10 mg/kg, po administered daily measured after 19 days relative to control; format: functional; details: time 19 day
Mus musculus [6] = experiment: Anti-inflammatory activity in BALB/c mouse model of carrageenan-induced paw edema assessed as increase in plasma 8,9-EET levels at 10 mg/kg, po measured after 6 hrs relative to control; format: functional
Mus musculus [7] = experiment: Anti-inflammatory activity in BALB/c mouse model of carrageenan-induced paw edema assessed as inhibition of paw swelling at 20 mg/kg, po measured for 6 hrs relative to control; format: functional
Mus musculus [8] = experiment: Anti-inflammatory activity in BALB/c mouse model of carrageenan-induced paw edema assessed as decrease in plasma 14,15-DHET levels at 10 mg/kg, po measured after 6 hrs relative to control; format: functional; set-up: scale not given: the % may be the effect or the level left
Rattus norvegicus [9] = experiment: Anti-inflammatory activity in Sprague-Dawley rat model of CFA-induced rheumatoid arthritis assessed as smooth cartilage surface at 10 mg/kg, po administered daily measured after 19 days by H and E staining based analysis; format: functional, organism-based; details: time 19.0 day
hERG = hERG (Homo sapiens, UniProt Q12809); experiment: Inhibition of hERG at 10 uM by whole-cell patch-clamp method relative to control; format: toxicity
Mus musculus [10] = experiment: Anti-inflammatory activity in BALB/c mouse model of carrageenan-induced paw edema assessed as decrease in plasma 11,12-DHET levels at 10 mg/kg, po measured after 6 hrs relative to control; format: functional; set-up: scale not given: the % may be the effect or the level left
[11] = Cmax in liver of C57BL/6J mouse at 20 mg/kg, po measured for 24 hrs; format: ADME, organism-based
[12] = Clearance in Sprague-Dawley rat at 5 mg/kg, iv measured for 24 hrs; format: ADME, organism-based; details: in vivo
[13] = Cmax in plasma of C57BL/6J mouse at 20 mg/kg, po measured for 24 hrs; format: ADME, organism-based
[14] = Tmax in Sprague-Dawley rat at 5 mg/kg, iv measured for 24 hrs; format: ADME, organism-based; details: in vivo
Mus musculus [15] = experiment: Anti-inflammatory activity in BALB/c mouse model of carrageenan-induced paw edema assessed as inhibition of paw swelling at 1 mg/kg, po measured up to 6 hrs relative to control; format: functional
Mus musculus [16] = experiment: as §1, with “plasma 11,12-EET/DHET” for “pancreatic EET/DHET”, “69.8” for “23.5”, “77.3” for “41.7”; format: functional; details: time 3.5-5.5 hrs
RAW264.7 [17] = experiment: Anti-inflammatory activity in LPS-indeced mouse RAW264.7 cells assessed as reduction in IL-1beta level at 10 uM preincubated for 1 hr followed by LPS addition measured after 24 hrs by ELISA; format: functional, cell-based
Rattus norvegicus [18] = experiment: Anti-inflammatory activity in Sprague-Dawley rat model of CFA-induced rheumatoid arthritis assessed as increase in plasma 14,15-EET level at 10 mg/kg, po administered daily measured after 19 days relative to control; format: functional; details: time 19 day
[19] = Ratio of AUC (0 to 24 hrs) in liver to plasma in C57BL/6J mouse at 20 mg/kg, po measured for 24 hrs; format: ADME, organism-based; details: liver and plasma, read-out: Ratio AUC
RAW264.7 [20] = experiment: Anti-inflammatory activity in LPS-indeced mouse RAW264.7 cells assessed as reduction in TNF-alpha level at 10 uM preincubated for 1 hr followed by LPS addition measured after 24 hrs by ELISA; format: functional, cell-based; details: time 25.0 hrs
[21] = Cmax in Sprague-Dawley rat at 5 mg/kg, iv measured for 24 hrs; format: ADME, organism-based; details: in vivo
Mus musculus [22] = experiment: Anti-inflammatory activity in BALB/c mouse model of carrageenan-induced paw edema assessed as increase in ratio of 11,12-EET to DHET plasma levels at 10 mg/kg, po measured after 6 hrs relative to control; format: functional
[23] = AUC (0 to 24 hrs) in Sprague-Dawley rat at 5 mg/kg, iv measured for 24 hrs; format: ADME, organism-based; details: in vivo
Rattus norvegicus [24] = experiment: Anti-inflammatory activity in Sprague-Dawley rat model of CFA-induced rheumatoid arthritis assessed as improvement in food intake at 10 mg/kg, po administered daily measured for 19 days; format: functional, organism-based; details: time 19.0 day
[25] = Cmax in Sprague-Dawley rat at 20 mg/kg, po measured for 24 hrs; format: ADME, organism-based; details: in vivo
[26] = Ratio of Cmax in brain to plasma in C57BL/6J mouse at 20 mg/kg, po measured for 24 hrs; format: ADME, organism-based; details: brain and plasma
Rattus norvegicus [27] = experiment: Anti-inflammatory activity in Sprague-Dawley rat model of CFA-induced rheumatoid arthritis assessed as decrease in lymphocytes infiltration in synovial tissue at 10 mg/kg, po administered daily measured after 19 days by H and E staining based analysis; format: functional, organism-based; details: time 19.0 day
Mus musculus [28] = experiment: Analgesic effect in BALB/c mouse model of acetic acid-induced writhing assessed as reduction in number of writhing episodes at 20 mg/kg, po pretreated for 1 hr followed by acetic acid treatment and measured after 5 to 35 mins relative to control; format: functional; set-up: scale not given: the % may be the effect or the level left; details: time 65-95 min
Rattus norvegicus [29] = experiment: Anti-inflammatory activity in Sprague-Dawley rat model of CFA-induced rheumatoid arthritis assessed as BV value at 10 mg/kg, po administered daily measured after 19 days by micro-CT analysis (reference value: 37.091 mm3); format: functional; details: time 19 day
Mus musculus [30] = experiment: as §1, with “plasma 8,9-EET/DHET” for “pancreatic EET/DHET”, “69.8” for “23.5”, “77.3” for “41.7”; format: functional; details: time 3.5-5.5 hrs
Mus musculus [31] = experiment: Anti-inflammatory activity in BALB/c mouse model of carrageenan-induced paw edema assessed as inhibition of paw swelling at 20 mg/kg, po measured up to 6 hrs relative to control; format: functional
Rattus norvegicus [32] = experiment: Anti-inflammatory activity in Sprague-Dawley rat model of CFA-induced rheumatoid arthritis assessed as decrease in swelling degree of left paw at 10 mg/kg, po administered daily measured after 16 to 19 days; format: functional, organism-based; details: time 16-19 day
Rattus norvegicus [33] = experiment: Anti-inflammatory activity in Sprague-Dawley rat model of CFA-induced rheumatoid arthritis assessed as decrease in paw redness at 10 mg/kg, po administered daily measured after 7 days; format: functional, organism-based; details: time 7.0 day
Rattus norvegicus [34] = experiment: Anti-inflammatory activity in Sprague-Dawley rat model of CFA-induced rheumatoid arthritis assessed as improvement in body weight at 10 mg/kg, po administered daily measured for 19 days; format: functional, organism-based; details: time 19.0 day

Sequence of hERG (Q12809 whole entry): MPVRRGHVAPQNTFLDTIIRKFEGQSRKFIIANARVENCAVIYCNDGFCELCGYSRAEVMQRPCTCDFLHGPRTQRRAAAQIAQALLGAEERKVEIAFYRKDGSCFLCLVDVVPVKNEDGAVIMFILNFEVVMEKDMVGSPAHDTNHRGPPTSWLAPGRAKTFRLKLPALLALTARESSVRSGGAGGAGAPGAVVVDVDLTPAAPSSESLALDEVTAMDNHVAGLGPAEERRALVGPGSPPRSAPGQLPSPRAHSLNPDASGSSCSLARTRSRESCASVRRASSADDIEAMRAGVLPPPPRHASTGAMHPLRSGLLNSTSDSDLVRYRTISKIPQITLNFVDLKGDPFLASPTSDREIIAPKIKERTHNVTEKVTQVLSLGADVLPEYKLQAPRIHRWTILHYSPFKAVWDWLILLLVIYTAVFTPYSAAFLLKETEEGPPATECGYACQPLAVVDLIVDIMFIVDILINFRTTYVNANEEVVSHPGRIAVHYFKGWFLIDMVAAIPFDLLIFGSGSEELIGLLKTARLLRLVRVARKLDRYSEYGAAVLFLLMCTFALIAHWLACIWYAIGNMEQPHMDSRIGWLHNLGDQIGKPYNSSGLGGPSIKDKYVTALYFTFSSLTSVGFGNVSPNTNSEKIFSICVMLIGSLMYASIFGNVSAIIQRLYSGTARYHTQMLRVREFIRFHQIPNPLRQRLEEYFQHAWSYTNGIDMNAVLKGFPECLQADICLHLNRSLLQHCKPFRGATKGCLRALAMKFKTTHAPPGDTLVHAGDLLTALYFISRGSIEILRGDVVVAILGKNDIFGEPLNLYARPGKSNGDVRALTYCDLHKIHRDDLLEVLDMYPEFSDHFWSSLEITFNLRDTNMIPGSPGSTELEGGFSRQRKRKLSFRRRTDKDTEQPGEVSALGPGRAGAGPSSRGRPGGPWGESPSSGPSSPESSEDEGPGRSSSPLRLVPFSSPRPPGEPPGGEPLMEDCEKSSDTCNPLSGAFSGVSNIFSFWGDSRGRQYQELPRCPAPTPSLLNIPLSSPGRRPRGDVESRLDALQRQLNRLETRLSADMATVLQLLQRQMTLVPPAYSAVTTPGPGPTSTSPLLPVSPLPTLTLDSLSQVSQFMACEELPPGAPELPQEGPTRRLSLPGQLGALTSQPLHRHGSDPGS

- Kp at 24 h [1]: 6.71
- Cmax [11]: 3230 ng/g
- clearance [12]: 38.8 mL/min/kg
- Cmax [13]: 482 ng/mL
- Tmax [14]: 4.8 min
- Kp at 24 h [19]: 50.9
- Cmax [21]: 3120 ng/mL
- AUC(0-t) at 24 h [23]: 2190 ng·h/mL
- Cmax [25]: 359 ng/mL
- Kp at 24 h [26]: 0.06
SMILES: COc1cc(CC(=O)N2CCC(NC(=O)NCc3ccc(OC(F)(F)F)cc3)CC2)cc(OC)c1
- Activity (Mus musculus [2]): 311%
- Activity (Rattus norvegicus [3]): Active
- inhibition in vivo at 20 mg/kg (Mus musculus [4]): 44.6%
- Activity (Rattus norvegicus [5]): 463%
- Activity (Mus musculus [6]): 28.7%
- inhibition in vivo at 20 mg/kg (Mus musculus [7]): 38.1%
- Activity (Mus musculus [8]): 69.8%
- Activity (Rattus norvegicus [9]): Active
- inhibition at 10 µM (hERG): 12.5%
- Activity (Mus musculus [10]): 55.1%
- inhibition in vivo at 1 mg/kg (Mus musculus [15]): 34%
- Activity (Mus musculus [16]): 552%
- Activity (RAW264.7 [17]): Active
- Activity (Rattus norvegicus [18]): 175%
- Activity (RAW264.7 [20]): Active
- Activity (Mus musculus [22]): 362%
- Activity (Rattus norvegicus [24]): Active
- Activity (Rattus norvegicus [27]): Active; Small Lymphocytes Infiltration Was Observed
- Activity (Mus musculus [28]): 42%
- Activity (Rattus norvegicus [29]): 36.234 mm3
- Activity (Mus musculus [30]): 558%
- inhibition in vivo at 20 mg/kg (Mus musculus [31]): 44.6%
- Activity (Rattus norvegicus [32]): Active
- Activity (Rattus norvegicus [33]): Active
- Activity (Rattus norvegicus [34]): Active
